# Measurements taken from ChEMBL document CHEMBL6153025, “Multidrug-resistant bacteria quorum-sensing inhibitors: A particular focus on Pseudomonasaeruginosa” (Eur J Med Chem, 2025).
# Experiments:
# [1] = tested on: Pseudomonas aeruginosa; test: Antivirulence activity in Pseudomonas aeruginosa PAO1 assessed as reduction in pyocyanin production at 10 uM incubated for 24 hrs by absorbance based analysis relative to control; format: functional; design: scale not given: the % may be the effect or the level left
# [2] = tested on: Pseudomonas aeruginosa; test: Antibacterial activity against Pseudomonas aeruginosa ATCC 15442 assessed as reduction in bacterial cell growth incubated for 24 hrs by two fold serial microdilution method; format: functional
# [3] = tested on: Pseudomonas aeruginosa; test: Antibacterial activity against Pseudomonas aeruginosa ATCC 27853 assessed as bacterial growth inhibition by agar diffusion assay; format: functional
# [4] = tested on: Pseudomonas aeruginosa; test: Antibacterial activity against Pseudomonas aeruginosa PAO1-L; format: functional, organism-based
# [5] = Inhibition of quorum sensing system in Pseudomonas aeruginosa PAO1
# [6] = tested on: Bacillus subtilis; test: Antibacterial activity against Bacillus subtilis; format: functional
# [7] = tested on: Bacillus pumilus; test: Antibacterial activity against Bacillus pumilus; format: functional
# [8] = tested on: Staphylococcus aureus; test: Antibacterial activity against Methicillin-sensitive Staphylococcus aureus; format: functional
# [9] = tested on: Escherichia coli; test: Antibacterial activity against Escherichia coli; format: functional
# [10] = tested on: Pseudomonas aeruginosa; test: Antibacterial activity against Pseudomonas aeruginosa; format: functional
# [11] = tested on: Pseudomonas aeruginosa; test: Antivirulence activity against Pseudomonas aeruginosa PAO1 assessed as reduction in pyocyanin level at 10 uM relative to control; format: functional; design: scale not given: the % may be the effect or the level left
# [12] = tested on: Pseudomonas aeruginosa; test: Antibiofilm activity against Pseudomonas aeruginosa PA14 assessed as reduction in biofilm biomass production at 18 ug/ml relative to control; format: functional; design: scale not given: the % may be the effect or the level left; settings: dose 18 µg/ml
# [13] = tested on: Pseudomonas aeruginosa; test: Antibiofilm activity against Pseudomonas aeruginosa PAO1 assessed as inhibition of biofilm formation at 100 uM relative to control; format: functional; design: scale not given: the % may be the effect or the level left
# [14] = Inhibition of quorum sensing system in Pseudomonas aeruginosa PAO1 expressing lasB-gfp
# [15] = tested on: Staphylococcus aureus; test: Antibacterial activity against Methicillin-resistant Staphylococcus aureus; format: functional
# [16] = tested on: Pseudomonas aeruginosa; test: Anti-virulence activity against Pseudomonas aeruginosa PAO1-L assessed as reduction in pyocyanin production at 10 uM incubated for 24 hrs by absorbance based analysis relative to control; format: functional; design: scale not given: the % may be the effect or the level left
# [17] = tested on: Pseudomonas aeruginosa; test: Anti-virulence effect in Pseudomonas aeruginosa PAO1 assessed as inhibition of rhamnolipid production at 10 uM relative to control; format: functional; design: scale not given: the % may be the effect or the level left
compound,measurement,setting,value
CCCCCCCCNc1ccnc2cc(Cl)ccc12,Activity,[1],80%
same,MIC,[2],> 2 µM
COc1ccccc1C(=O)CSc1ccc2ccccc2n1,MIC,[3],> 128 µg/mL
N#CCc1ccc(OCC(O)Cn2cnc3ccc(Cl)cc3c2=O)c(F)c1 (stereo not given),IC50,[4],2.2 µM
Clc1ccc2c(NCCCCCCCCNCc3ncc[nH]3)ccnc2c1,Activity,[1],97%
same,MIC,[2],> 2 µM
N#CCc1ccc(OCC(F)Cn2cnc3ccc(Cl)cc3c2=O)cc1 (stereo not given),IC50,[4],4.3 µM
O=C(CNc1ccc(C(=O)/C=C/c2ccc(Cl)cc2)cc1)N[C@@H]1CCOC1=O,IC50,[5],46.8 µM
COc1ccc(OCCCCCC(=O)NN2C(=O)CN(c3ccccc3O)C2=O)cc1,MIC,[6],> 512 µg/mL
same,MIC,[7],> 512 µg/mL
same,MIC,[8],> 512 µg/mL
same,MIC,[9],> 512 µg/mL
same,MIC,[10],> 512 µg/mL
same,Activity,[11],61%
COc1cc(/C=C/c2cncnc2)c(C(=O)O)c(O)c1CC=C(C)C,Activity,[12],36.11%
O=C(CNc1ccc(C(=O)/C=C/c2ccc(Br)cc2)cc1)N[C@@H]1CCOC1=O,IC50,[5],46.8 µM
O=C(CCCCCOc1cccc(C(F)(F)F)c1)NN1C(=O)CN(c2ccccc2O)C1=O,MIC,[6],> 512 µg/mL
same,MIC,[7],> 512 µg/mL
same,MIC,[8],> 512 µg/mL
same,MIC,[9],> 512 µg/mL
same,Activity,[11],38.62%
COc1cc(/C=C/c2cn(Cc3ccccc3)nn2)c(C(=O)O)c(O)c1CC=C(C)C,Activity,[12],51.38%
O=C(CNc1ccc(C(=O)/C=C/c2ccc(Cl)c(Cl)c2)cc1)N[C@@H]1CCOC1=O,IC50,[5],46.8 µM
COc1cc(/C=C/c2ccc(C#N)cc2F)c(C(=O)O)c(O)c1CC=C(C)C,Activity,[12],19.43%
O=C(CNc1ccc(C(=O)/C=C/c2ccccc2)cc1)N[C@@H]1CCOC1=O,IC50,[5],62.5 µM
Clc1ccc2c(NCCCCCCCCNCc3csc4ccccc34)ccnc2c1,Activity,[1],97%
same,MIC,[2],> 2 µM
O=C(CNc1ccc(C(=O)/C=C/c2ccccc2Cl)cc1)N[C@@H]1CCOC1=O,IC50,[5],67.8 µM
O=C(CSc1nc2ccccc2s1)c1ccc(Cl)c(Cl)c1,MIC,[3],> 128 µg/mL
O=c1c(O[C@@H]2O[C@H](CO)[C@H](O)[C@H](O)[C@H]2O)c(-c2ccc(O)c(O)c2)oc2cc(O)cc(O)c12 [HYPEROSIDE],Activity,[13],18%
COc1cc(O)c(C(=O)O)c(/C=C/c2ccc(S(F)(F)(F)(F)F)cc2)c1,Activity,[12],18.95%
Cc1ccc(OCCCCCC(=O)NN2C(=O)CN(c3ccccc3O)C2=O)cc1,MIC,[6],> 512 µg/mL
same,MIC,[7],> 512 µg/mL
same,MIC,[8],> 512 µg/mL
same,MIC,[9],> 512 µg/mL
same,MIC,[10],> 512 µg/mL
same,Activity,[11],61%
COc1cc(/C=C/C2C(C)=NC(C)=CN2C)c(C(=O)O)c(O)c1CC=C(C)C (stereo not given),Activity,[12],59.68%
O=c1cc(-c2ccc(O)c(O)c2)oc2c([C@H]3C[C@@H](O)[C@H](O)[C@@H](CO)O3)c(O)cc(O)c12,Activity,[13],18%
COc1cc(/C=C/c2cncs2)c(C(=O)O)c(O)c1CC=C(C)C,Activity,[12],21.06%
O=c1cc(-c2ccc(O)c(O)c2)oc2cc(O)c([C@@H]3O[C@H](CO)[C@@H](O)[C@H](O)[C@H]3O)c(O)c12 [ISOORIENTIN],Activity,[13],18%
COc1cc(O)c(C(=O)O)c(CCc2ccc(S(F)(F)(F)(F)F)cc2)c1,Activity,[12],19.48%
O=C(CSc1ccc2ccccc2n1)c1ccc2c(c1)OCCO2,MIC,[3],> 128 µg/mL
O=C(CNc1ccc(C(=O)/C=C/c2ccc(Br)cc2F)cc1)N[C@@H]1CCOC1=O,IC50,[5],26.5 µM
O=C(CSC1=NC2C=C([N+](=O)[O-])C=CC2=N1)Cc1ccc(Br)cc1 (stereo not given),MIC,[3],> 512 µg/mL
O=C(CCCCCOc1ccc(F)cc1)NN1C(=O)CN(c2ccccc2O)C1=O,MIC,[6],> 512 µg/mL
same,MIC,[7],> 512 µg/mL
same,MIC,[8],> 512 µg/mL
same,MIC,[9],> 512 µg/mL
same,MIC,[10],> 512 µg/mL
same,Activity,[11],61%
O=C(CNc1ccc(C(=O)/C=C/c2ccc(F)cc2)cc1)N[C@@H]1CCOC1=O,IC50,[5],46.8 µM
O=[N+]([O-])c1ccc(CNCCCCCCCCNc2ccnc3cc(Cl)ccc23)cc1,Activity,[1],97%
same,MIC,[2],> 2 µM
N#CCc1ccc(OCC(N)Cn2cnc3ccc(Cl)cc3c2=O)cc1 (stereo not given),IC50,[14],2.4 µM
same,IC50,[4],4.3 µM
O=C(CCCCCOc1ccc([N+](=O)[O-])cc1)NNC(=O)Cn1c(=O)oc2ncccc21,MIC,[6],> 512 µg/mL
same,MIC,[7],> 512 µg/mL
same,MIC,[8],> 512 µg/mL
same,MIC,[15],> 512 µg/mL
same,MIC,[9],> 512 µg/mL
same,MIC,[10],> 512 µg/mL
O=c1c(O[C@@H]2O[C@H](CO)[C@@H](O)[C@H](O)[C@H]2O)c(-c2ccc(O)c(O)c2)oc2cc(O)cc(O)c12 [ISOQUERCETIN],Activity,[13],18%
O=C(CNc1ccc(C(=O)/C=C/c2ccccc2Br)cc1)N[C@@H]1CCOC1=O,IC50,[5],37.6 µM
COc1cc(/C=C/c2cccc3cccnc23)c(C(=O)O)c(O)c1CC=C(C)C,Activity,[12],35.61%
O=C(CCCCCOc1ccc(C(F)(F)F)cc1)NN1C(=O)CN(c2ccccc2O)C1=O,MIC,[6],> 512 µg/mL
same,MIC,[7],> 512 µg/mL
same,MIC,[8],> 512 µg/mL
same,MIC,[9],> 512 µg/mL
same,MIC,[10],> 512 µg/mL
same,Activity,[11],38.62%
COc1cccc(/C=C/C(=O)c2ccc(NCC(=O)N[C@@H]3CCOC3=O)cc2)c1,IC50,[5],56.5 µM
N#CCc1ccc(OC[C@@H](O)Cn2cnc3ccc(Cl)cc3c2=O)cc1,IC50,[14],7 µM
same,IC50,[4],4.3 µM
same,Activity,[16],95%
O=C(CSc1ccc2ccccc2n1)c1ccccc1,MIC,[3],> 128 µg/mL
COc1cc(/C=C/c2ccc(S(F)(F)(F)(F)F)cc2)c(C(=O)O)c(O)c1CC=C(C)C,Activity,[12],50%
O=C(CSc1nc2ccccc2s1)c1ccccc1,MIC,[3],> 128 µg/mL
COc1ccc(OCCCCCCC(=O)NNC(=O)Cn2c(=O)oc3ncccc32)cc1,MIC,[6],> 512 µg/mL
same,MIC,[7],> 512 µg/mL
same,MIC,[8],> 512 µg/mL
same,MIC,[15],> 512 µg/mL
same,MIC,[9],> 512 µg/mL
same,MIC,[10],> 512 µg/mL
same,Activity,[17],6.34%
O=Cc1ccc(O)c(O)c1 [PROTOCATECHUALDEHYDE],Activity,[13],18%
CCCCCCCCCCC(=O)NN1C(=O)CN(c2ccccc2O)C1=O,MIC,[6],> 512 µg/mL
same,MIC,[7],> 512 µg/mL
same,MIC,[8],> 512 µg/mL
same,MIC,[9],> 512 µg/mL
same,MIC,[10],> 512 µg/mL
same,Activity,[11],38.62%
same,Activity,[17],2.76%
CC(=O)NCCCCCCCCNc1ccnc2cc(Cl)ccc12,Activity,[1],42%
same,MIC,[2],> 2 µM
Clc1ccc2c(NCCCCCCCCNCc3cc4ccccc4s3)ccnc2c1,Activity,[1],97%
same,MIC,[2],> 2 µM
O=C(CCCCCOc1ccc(C(F)(F)F)cc1)NNC(=O)Cn1c(=O)oc2ncccc21,MIC,[6],> 512 µg/mL
same,MIC,[7],> 512 µg/mL
same,MIC,[8],> 512 µg/mL
same,MIC,[15],> 512 µg/mL
same,MIC,[9],> 512 µg/mL
same,MIC,[10],> 512 µg/mL
same,Activity,[11],53.1%
O=C(CNc1ccc(C(=O)/C=C/c2cc(Cl)cc(Cl)c2)cc1)N[C@@H]1CCOC1=O,IC50,[5],46.8 µM
COc1cc(C(=O)CSc2ccc3ccccc3n2)ccc1O,MIC,[3],> 128 µg/mL
N#CCc1ccc(OCC(=O)Cn2cnc3ccc(Cl)cc3c2=O)cc1,IC50,[4],4.3 µM
FC(F)(F)c1ccc(CNCCCCCCCCNc2ccnc3cc(Cl)ccc23)cc1,Activity,[1],97%
same,MIC,[2],> 2 µM
N#CCc1ccc(OCC(O)Cn2cnc3ccc(Cl)cc3c2=O)cc1F (stereo not given),IC50,[4],6.4 µM
O=C(CCCCCOc1ccc(Cl)cc1)NNC(=O)Cn1c(=O)oc2ncccc21,MIC,[6],> 512 µg/mL
same,MIC,[7],> 512 µg/mL
same,MIC,[8],> 512 µg/mL
same,MIC,[15],> 512 µg/mL
same,MIC,[9],> 512 µg/mL
same,MIC,[10],> 512 µg/mL
Clc1ccc2c(NCCCCCCCCNCc3cc4ccccc4o3)ccnc2c1,Activity,[1],97%
same,MIC,[2],> 2 µM
COc1ccc(C(=O)CSc2ccc3ccccc3n2)c(OC)c1,MIC,[3],> 128 µg/mL
COc1ccc(OCCCCC(=O)NNC(=O)Cn2c(=O)oc3ncccc32)cc1,MIC,[6],> 512 µg/mL
same,MIC,[7],> 512 µg/mL
same,MIC,[8],> 512 µg/mL
same,MIC,[15],> 512 µg/mL
same,MIC,[9],> 512 µg/mL
same,MIC,[10],> 512 µg/mL
